Holding throughout (assay): relative viability (nuclei count vs DMSO), 5 days (fraction); higher = more cells survive
Compound in the assay “Cediranib + Linsitinib”: COc1cc2c(Oc3ccc4[nH]c(C)cc4c3F)ncnc2cc1OCCCN1CCCC1 [Cediranib] + C[C@]1(O)C[C@@H](c2nc(-c3ccc4ccc(-c5ccccc5)nc4c3)c3c(N)nccn32)C1 [Linsitinib] (partner 1 µM)
An outline of the steps: (§1)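 Relative viability is defined as nuclei in treated wells over nuclei in vehicle wells. Duplicate plates were run and medians reported. Lung cancer cell lines in 1536-well plates were dosed by pin tool one day after seeding, with one drug or with a fixed anchor-drug dose plus five library-drug doses (not always all listed) in √10 steps, and nuclei were counted after 5 days.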

Compound in the assay “Cediranib + Vorinostat”: COc1cc2c(Oc3ccc4[nH]c(C)cc4c3F)ncnc2cc1OCCCN1CCCC1 [Cediranib] + O=C(CCCCCCC(=O)Nc1ccccc1)NO [Vorinostat] (partner 1 µM)
An outline of the steps:
as §1

Compound in the assay “Halofuginone + Alpelisib”: O=C(C[C@H]1NCCC[C@@H]1O)Cn1cnc2cc(Br)c(Cl)cc2c1=O (racemic) [Halofuginone] + Cc1nc(NC(=O)N2CCC[C@H]2C(N)=O)sc1-c1ccnc(C(C)(C)C(F)(F)F)c1 [Alpelisib] (partner 2 µM)
Summed up: as §1

Compound in the assay “Halofuginone + Dasatinib”: O=C(C[C@H]1NCCC[C@@H]1O)Cn1cnc2cc(Br)c(Cl)cc2c1=O (racemic) [Halofuginone] + Cc1nc(Nc2ncc(C(=O)Nc3c(C)cccc3Cl)s2)cc(N2CCN(CCO)CC2)n1 [Dasatinib] (partner 0.075 µM)
Summed up: as §1

These results are taken from the supplement of paper PMC10307832.

For the cell line RERF-LC-KJ, the relative viability with Cediranib + Linsitinib (first compound 0.04 µM) stood at 0.909; with Cediranib + Linsitinib (first compound 0.1265 µM), 0.862; with Cediranib + Linsitinib (first compound 0.4 µM), 0.869; with Cediranib + Linsitinib (first compound 1.265 µM), 0.871; with Cediranib + Linsitinib (first compound 4 µM), 0.907; with Cediranib + Vorinostat (first compound 0.04 µM) it was 0.805. The relative viability in the assay with Cediranib + Vorinostat (first compound 0.1265 µM) is 0.226; with Cediranib + Vorinostat (first compound 0.4 µM), 0.62; with Cediranib + Vorinostat (first compound 1.265 µM) it was 0.674; with Cediranib + Vorinostat (first compound 4 µM) it was 0.761; in the assay with Halofuginone + Alpelisib (first compound 0.001 µM), 0.849; with Halofuginone + Alpelisib (first compound 0.003162 µM), 1.09. The relative viability amounted to 0.735 with Halofuginone + Alpelisib (first compound 0.01 µM); 0.908 in the assay with Halofuginone + Alpelisib (first compound 0.03162 µM); 0.831 in the assay with Halofuginone + Alpelisib (first compound 0.1 µM); 0.875 with Halofuginone + Dasatinib (first compound 0.001 µM); 0.91 with Halofuginone + Dasatinib (first compound 0.003162 µM); 0.764 with Halofuginone + Dasatinib (first compound 0.01 µM). In addition, the relative viability with Halofuginone + Dasatinib (first compound 0.03162 µM) came out at 0.862; with Halofuginone + Dasatinib (first compound 0.1 µM) it was 0.633.

SK-LU-1: the relative viability with Cediranib + Linsitinib (first compound 0.04 µM) is 1.18; in the assay with Cediranib + Linsitinib (first compound 0.1265 µM), 1.04; with Cediranib + Linsitinib (first compound 0.4 µM), 0.979; with Cediranib + Linsitinib (first compound 1.265 µM), 1.06; with Cediranib + Linsitinib (first compound 4 µM), 1.07; with Cediranib + Vorinostat (first compound 0.04 µM) it was 0.881. Further, the relative viability with Cediranib + Vorinostat (first compound 0.1265 µM) came to 0.777; with Cediranib + Vorinostat (first compound 0.4 µM), 0.685; with Cediranib + Vorinostat (first compound 1.265 µM), 0.775; with Cediranib + Vorinostat (first compound 4 µM) it was 0.773; with Halofuginone + Alpelisib (first compound 0.001 µM), 1.14; with Halofuginone + Alpelisib (first compound 0.003162 µM), 1.13. Moreover, the relative viability was 1.02 with Halofuginone + Alpelisib (first compound 0.01 µM); 0.888 with Halofuginone + Alpelisib (first compound 0.03162 µM); 0.247 in the assay with Halofuginone + Alpelisib (first compound 0.1 µM); 0.204 with Halofuginone + Dasatinib (first compound 0.001 µM); 0.211 in the assay with Halofuginone + Dasatinib (first compound 0.003162 µM); 0.198 with Halofuginone + Dasatinib (first compound 0.01 µM). Also, the relative viability was 0.183 with Halofuginone + Dasatinib (first compound 0.03162 µM) and 0.137 with Halofuginone + Dasatinib (first compound 0.1 µM).

For the cell line SK-MES-1, the relative viability came out at 1.04 in the assay with Cediranib + Linsitinib (first compound 0.04 µM); 1.04 with Cediranib + Linsitinib (first compound 0.1265 µM); 1.06 with Cediranib + Linsitinib (first compound 0.4 µM); 0.959 with Cediranib + Linsitinib (first compound 1.265 µM); 1.13 with Cediranib + Linsitinib (first compound 4 µM); 1.17 with Cediranib + Vorinostat (first compound 0.04 µM). Besides, the relative viability worked out at 1.04 with Cediranib + Vorinostat (first compound 0.1265 µM); 0.966 in the assay with Cediranib + Vorinostat (first compound 0.4 µM); 1.05 with Cediranib + Vorinostat (first compound 1.265 µM); 1.21 with Cediranib + Vorinostat (first compound 4 µM); 0.952 in the assay with Halofuginone + Alpelisib (first compound 0.001 µM); 1.32 with Halofuginone + Alpelisib (first compound 0.003162 µM). Further, the relative viability with Halofuginone + Alpelisib (first compound 0.01 µM) amounted to 0.853; in the assay with Halofuginone + Alpelisib (first compound 0.03162 µM) it was 0.832; with Halofuginone + Alpelisib (first compound 0.1 µM) it was 0.522; with Halofuginone + Dasatinib (first compound 0.001 µM), 0.38; in the assay with Halofuginone + Dasatinib (first compound 0.003162 µM), 0.429; in the assay with Halofuginone + Dasatinib (first compound 0.01 µM) it was 0.446. In addition, the relative viability in the assay with Halofuginone + Dasatinib (first compound 0.03162 µM) turned out to be 0.283; with Halofuginone + Dasatinib (first compound 0.1 µM), 0.117.

With SW 1573, the relative viability amounted to 0.71 with Cediranib + Linsitinib (first compound 0.04 µM); 0.698 with Cediranib + Linsitinib (first compound 0.1265 µM); 0.743 with Cediranib + Linsitinib (first compound 0.4 µM); 0.754 with Cediranib + Linsitinib (first compound 1.265 µM); 0.861 in the assay with Cediranib + Linsitinib (first compound 4 µM); 1.03 with Cediranib + Vorinostat (first compound 0.04 µM). Moreover, the relative viability with Cediranib + Vorinostat (first compound 0.1265 µM) was 0.532; in the assay with Cediranib + Vorinostat (first compound 0.4 µM) it was 0.991; with Cediranib + Vorinostat (first compound 1.265 µM), 0.582; with Cediranib + Vorinostat (first compound 4 µM), 0.806; with Halofuginone + Alpelisib (first compound 0.001 µM) it was 0.735; with Halofuginone + Alpelisib (first compound 0.003162 µM) it was 0.748. The relative viability in the assay with Halofuginone + Alpelisib (first compound 0.01 µM) was 0.717; with Halofuginone + Alpelisib (first compound 0.03162 µM) it was 0.645; with Halofuginone + Alpelisib (first compound 0.1 µM), 0.618; with Halofuginone + Dasatinib (first compound 0.001 µM) it was 0.576; with Halofuginone + Dasatinib (first compound 0.003162 µM), 0.579; in the assay with Halofuginone + Dasatinib (first compound 0.01 µM), 0.481. Also, the figures for the relative viability in the assay with Halofuginone + Dasatinib (first compound 0.03162 µM) and with Halofuginone + Dasatinib (first compound 0.1 µM) were 0.241 and 0.0881, respectively.
